Among the data in US20250186597A1, “TARGETED IMMUNE ACTIVATION WITH IL-18 IMMUNOCYTOKINES” (BRIGHT PEAK THERAPEUTICS AG, priority 2023, published 2025) are EC50 and Kd values, retold here.

A word on the EC50: it is the concentration at which the effect is half-maximal. As a reminder, the Kd is the free concentration of one partner at which half of the binding sites on the other are occupied at equilibrium, for simple one-to-one binding. Low values mean tighter binding, high ones weaker binding.

Experiment [1] deals with parental PD-1negative NK-92 cells. In words: IFN gamma secretion assay in parental PD-1 negative NK-92 cells (Example 17). It is filed as cell-based, human. The note with it: IFNγ secretion. As to the method: To show selectivity of the anti-PD1-IL18 immunocytokine (IC) for PD-1 positive cells, the NK-92 cell line was used to generate a PD-1 expressing cell line and furthermore, to measure IFN[…] release upon incubation with IL-18 variants and ICs.
On the day of experiment, parental PD-1negative and PD-1positive transduced cells were harvested and washed with PBS 1× and resuspended in medium (w/o IL-2) containing 1 ng/ml of recombinant human Interleukin-12 (SinoBiologicals, Cat #CT011-H08H). After counting, cells were seeded at 100 000 cells/well in a 384 well culture plate and incubated at 37° C./5% CO2. When indicated, cells were preincubated with anti-PD-1 antibody LZM-009 at 17 uM during 30 min at 37° C. […] The lowest concentration assessed was 0.8 fM.
After 16-20 h incubation at 37° C./5% CO2, 5 μl of supernatant were carefully transferred to a 384 microwell OptiPlate (Perkin Elmer; Cat #6007270) and Interferon-gamma (IFNγ) levels were measured using the Human IFNγ AlphaLISA Assay Kit (Perkin Elmer, Cat #AL217C). […] AlphaLISA signal was then measured on an Enspire plate reader (Perkin Elmer) using 680 and 615 nm as excitation and emission wavelengths respectively. Half maximal effective concentration (EC50) was calculated based on a variable slope, four parameter analysis using GraphPad PRISM software.

Experiment [2] relates to parental PD-1 negative KG-1 cells. In words: IFN gamma secretion assay in parental PD-1 negative KG-1 cells (Example 11). The class given is cell-based, human. The note with it: IFNγ secretion. On the procedure: The KG-1 cell line was used to generate a PD-1 expressing cell line and furthermore, to measure IFNγ release upon incubation with IL-18 variants and corresponding IL-18 immunocytokines.
IFNγ release was assessed in PD-1 positive (transduced) KG-1 cells, as well as in the parental PD-1 negative cells. 0.5×10^5 cells were seeded into a 96-well U-bottom plate in culture media (RPMI, 10% FBS, 1% L-Glutamine) and stimulated with IL-18 variants/ICs for 20-24 h. The test items were diluted to 100 nM in culture medium, followed by 7 10-fold serial dilutions. The lowest concentration assessed was […]. After incubation, IFNγ release was measured using the LEGENDplex custom human mix and match KIT (Biolegend LEGENDplex™ Human IFN-γ Capture Bead B5, 13X #740942, LEGENDplex™ HU Essential Immune Response Panel Detection Abs, #740931, LEGENDplex™ Buffer Set A #740368). To this end, cell culture supernatant was collected and diluted 1:1 with Assay Buffer. Fluorescence measurements were done with a Quanteon Flow Cytometer from Acea Biosciences. For analysis, MFI values (median fluorescence intensity) were exported and plotted against concentrations used. The EC50 values (half maximal effective concentration) were calculated based on a variable slope and four parameter analysis using GraphPad PRISM software version 9.

Experiment [3] concerns the target T1, human IL-18 Binding Protein (IL-18BP) (Homo sapiens, UniProt O95998).
T1 sequence (O95998 31-194): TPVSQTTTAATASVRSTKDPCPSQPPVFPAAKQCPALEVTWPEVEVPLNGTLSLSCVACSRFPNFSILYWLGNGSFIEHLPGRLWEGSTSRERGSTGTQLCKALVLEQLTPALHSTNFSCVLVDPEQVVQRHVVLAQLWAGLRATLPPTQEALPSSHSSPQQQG
Briefly: IL-18 Binding Protein alphaLISA assay (Example 12). The note with it: human IL-18BP. On the procedure:
Wild type or modified IL-18 polypeptides samples were diluted at 5.6 μM in a solution of 1× alphaLISA Immunoassay Buffer provided in the alphaLISA IFNγ Detection kit and were diluted applying 3-fold serial dilutions down to […] in 384 deep well plates. A solution of 10 ng/ml of human IL-18BP-His was prepared with 1×alphaLISA Immunoassay Buffer. IL-18/IL-18BP complex formation was performed incubating 30 μl of IL-18BP solution to IL-18 sample titrations for 1 h at 20° C. IL-18BP standard was prediluted from stock solution supplied in alphaLISA IFNγ Detection kit at 100 ng/ml with 1×alphaLISA Buffer and titration prepared from applying 2-fold serial dilutions. The following solutions were prepared: a 50 μg/ml solution of anti-IL-18BP alphaLISA Acceptor beads, a 5 nM solution of biotinylated anti-IL18BP antibody and a 80 μg/ml light-protected solution of Streptavidin Donor beads in 1×alphaLISA Immunoassay Buffer. […]
5 μl of Biotinylated anti-IL-18BP antibody were added, followed by a short centrifugation step at 150 g, and incubated for 60 minutes at 20° C. under shaking at 750 rpm. […] AlphaLisa signal was then measured on an Enspire plate reader (Perkin Elmer) using 680 and 615 nm as excitation and emission wavelengths respectively. […]

With “SEQ ID NO: 1: Native sequence of human IL-18 (bioactive form) [reference compound]”, the concentration giving a half-maximal response (EC50) in experiment [1] stood at 0.158 nM; in experiment [2] it was 0.387 nM. This substance returned a dissociation constant (Kd) in experiment [3] of 0.411 nM.
